Experiments:
Format in all cases: binding
[1] = target: T1, JAK3 (Homo sapiens, UniProt P52333); test: Kinobeads assay with immunodetection, JAK3; conditions: for IC50: Kinobeads assay, mixed Molt4/Ramos lysate, read-out: Inhibition values (IC50) JAK3
T1 construct: endogenous in cells; host or cells: Molt4 (ATCC CRL-1582) and Ramos (ATCC CRL-1596) cells; mixed lysate 1:2
T1 sequence (P52333 1-1124): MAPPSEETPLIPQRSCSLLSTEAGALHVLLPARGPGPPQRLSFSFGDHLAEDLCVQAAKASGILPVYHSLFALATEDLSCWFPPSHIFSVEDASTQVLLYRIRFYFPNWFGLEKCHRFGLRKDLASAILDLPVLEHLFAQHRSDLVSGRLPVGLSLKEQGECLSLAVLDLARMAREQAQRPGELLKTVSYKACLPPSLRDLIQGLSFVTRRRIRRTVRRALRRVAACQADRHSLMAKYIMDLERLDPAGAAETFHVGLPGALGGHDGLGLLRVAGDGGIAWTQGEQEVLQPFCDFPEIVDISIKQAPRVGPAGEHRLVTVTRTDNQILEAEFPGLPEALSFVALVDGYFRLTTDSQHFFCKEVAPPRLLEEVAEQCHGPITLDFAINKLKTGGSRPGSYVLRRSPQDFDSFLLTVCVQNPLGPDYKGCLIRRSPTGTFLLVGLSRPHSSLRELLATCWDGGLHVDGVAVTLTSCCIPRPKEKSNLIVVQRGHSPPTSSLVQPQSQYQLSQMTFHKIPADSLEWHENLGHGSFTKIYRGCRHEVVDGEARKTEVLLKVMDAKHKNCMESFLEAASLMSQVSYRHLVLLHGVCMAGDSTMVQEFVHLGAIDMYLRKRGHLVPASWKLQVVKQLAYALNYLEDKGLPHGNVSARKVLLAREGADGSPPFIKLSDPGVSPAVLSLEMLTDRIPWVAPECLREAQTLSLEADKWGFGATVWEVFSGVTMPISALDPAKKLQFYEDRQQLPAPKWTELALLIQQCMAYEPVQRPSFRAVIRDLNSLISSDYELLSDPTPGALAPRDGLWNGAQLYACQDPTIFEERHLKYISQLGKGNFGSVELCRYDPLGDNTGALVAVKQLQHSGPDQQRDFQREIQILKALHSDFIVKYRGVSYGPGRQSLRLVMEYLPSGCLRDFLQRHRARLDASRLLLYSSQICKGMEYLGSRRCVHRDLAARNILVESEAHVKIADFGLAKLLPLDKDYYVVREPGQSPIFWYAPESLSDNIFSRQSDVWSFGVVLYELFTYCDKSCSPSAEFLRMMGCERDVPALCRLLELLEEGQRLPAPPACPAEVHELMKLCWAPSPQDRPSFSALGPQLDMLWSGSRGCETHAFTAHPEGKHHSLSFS
Outline: (§1)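 Competition binding: test compounds (9-step 1:3 dilutions of a 5 mM DMSO stock) compete with affinity matrix ligand for kinases in Molt4 plus Ramos lysate (ratio 1:2, 10 mg/mL) over 3 h in a cold room. Captured kinases are detected by specific antibodies in dot blot, and IC50 values are derived per kinase.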

[2] = target: T2, JAK2 (Homo sapiens, UniProt O60674); test: Kinobeads assay with immunodetection, JAK2; conditions: mixed Molt4/Ramos lysate, read-out: Inhibition values (IC50) JAK2
T2 construct: endogenous in cells; host or cells: Molt4 (ATCC CRL-1582) and Ramos (ATCC CRL-1596) cells; mixed lysate 1:2
Outline: as §1

[3] = target: T3, TYK2 (Homo sapiens, UniProt P29597); test: Kinobeads assay with immunodetection, TYK2; conditions: for IC50: Kinobeads assay, mixed Molt4/Ramos lysate, read-out: Inhibition values (IC50) Tyk2
T3 construct: endogenous in cells; host or cells: Molt4 (ATCC CRL-1582) and Ramos (ATCC CRL-1596) cells; mixed lysate 1:2
Outline: as §1

[4] = target: T4, JAK1 (Homo sapiens, UniProt P23458); test: Kinobeads assay with immunodetection, JAK1; conditions: for IC50: Kinobeads assay, mixed Molt4/Ramos lysate, read-out: Inhibition values (IC50) JAK1
T4 construct: endogenous in cells; host or cells: Molt4 (ATCC CRL-1582) and Ramos (ATCC CRL-1596) cells; mixed lysate 1:2
Outline: as §1

T2 sequence (O60674 whole entry): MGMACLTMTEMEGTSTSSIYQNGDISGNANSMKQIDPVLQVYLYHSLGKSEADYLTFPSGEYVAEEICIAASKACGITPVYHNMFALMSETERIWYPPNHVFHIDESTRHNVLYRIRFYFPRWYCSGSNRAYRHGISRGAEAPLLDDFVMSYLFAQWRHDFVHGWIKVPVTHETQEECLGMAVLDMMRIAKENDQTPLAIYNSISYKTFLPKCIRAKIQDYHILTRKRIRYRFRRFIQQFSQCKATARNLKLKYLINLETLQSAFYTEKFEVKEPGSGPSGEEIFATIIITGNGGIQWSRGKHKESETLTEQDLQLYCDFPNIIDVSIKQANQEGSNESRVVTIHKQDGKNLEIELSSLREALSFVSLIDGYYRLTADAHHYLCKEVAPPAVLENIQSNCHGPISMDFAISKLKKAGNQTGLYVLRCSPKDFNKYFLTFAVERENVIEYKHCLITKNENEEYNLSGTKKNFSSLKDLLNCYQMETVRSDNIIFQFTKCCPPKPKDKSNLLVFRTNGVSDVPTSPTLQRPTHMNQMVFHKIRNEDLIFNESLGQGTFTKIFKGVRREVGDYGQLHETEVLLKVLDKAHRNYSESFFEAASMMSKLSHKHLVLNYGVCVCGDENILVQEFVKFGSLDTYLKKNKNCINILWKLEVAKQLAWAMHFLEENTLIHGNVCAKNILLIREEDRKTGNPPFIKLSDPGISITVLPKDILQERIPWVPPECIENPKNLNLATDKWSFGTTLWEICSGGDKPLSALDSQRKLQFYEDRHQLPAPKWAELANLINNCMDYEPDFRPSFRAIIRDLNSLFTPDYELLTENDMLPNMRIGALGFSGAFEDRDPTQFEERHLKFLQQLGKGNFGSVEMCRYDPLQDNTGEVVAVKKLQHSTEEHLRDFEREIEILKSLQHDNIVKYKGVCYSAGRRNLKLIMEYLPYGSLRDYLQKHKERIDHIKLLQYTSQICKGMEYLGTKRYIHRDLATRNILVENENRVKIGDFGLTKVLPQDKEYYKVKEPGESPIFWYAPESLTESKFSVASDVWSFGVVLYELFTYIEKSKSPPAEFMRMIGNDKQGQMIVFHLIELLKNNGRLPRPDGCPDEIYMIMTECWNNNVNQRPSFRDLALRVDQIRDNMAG
T3 sequence (P29597 whole entry): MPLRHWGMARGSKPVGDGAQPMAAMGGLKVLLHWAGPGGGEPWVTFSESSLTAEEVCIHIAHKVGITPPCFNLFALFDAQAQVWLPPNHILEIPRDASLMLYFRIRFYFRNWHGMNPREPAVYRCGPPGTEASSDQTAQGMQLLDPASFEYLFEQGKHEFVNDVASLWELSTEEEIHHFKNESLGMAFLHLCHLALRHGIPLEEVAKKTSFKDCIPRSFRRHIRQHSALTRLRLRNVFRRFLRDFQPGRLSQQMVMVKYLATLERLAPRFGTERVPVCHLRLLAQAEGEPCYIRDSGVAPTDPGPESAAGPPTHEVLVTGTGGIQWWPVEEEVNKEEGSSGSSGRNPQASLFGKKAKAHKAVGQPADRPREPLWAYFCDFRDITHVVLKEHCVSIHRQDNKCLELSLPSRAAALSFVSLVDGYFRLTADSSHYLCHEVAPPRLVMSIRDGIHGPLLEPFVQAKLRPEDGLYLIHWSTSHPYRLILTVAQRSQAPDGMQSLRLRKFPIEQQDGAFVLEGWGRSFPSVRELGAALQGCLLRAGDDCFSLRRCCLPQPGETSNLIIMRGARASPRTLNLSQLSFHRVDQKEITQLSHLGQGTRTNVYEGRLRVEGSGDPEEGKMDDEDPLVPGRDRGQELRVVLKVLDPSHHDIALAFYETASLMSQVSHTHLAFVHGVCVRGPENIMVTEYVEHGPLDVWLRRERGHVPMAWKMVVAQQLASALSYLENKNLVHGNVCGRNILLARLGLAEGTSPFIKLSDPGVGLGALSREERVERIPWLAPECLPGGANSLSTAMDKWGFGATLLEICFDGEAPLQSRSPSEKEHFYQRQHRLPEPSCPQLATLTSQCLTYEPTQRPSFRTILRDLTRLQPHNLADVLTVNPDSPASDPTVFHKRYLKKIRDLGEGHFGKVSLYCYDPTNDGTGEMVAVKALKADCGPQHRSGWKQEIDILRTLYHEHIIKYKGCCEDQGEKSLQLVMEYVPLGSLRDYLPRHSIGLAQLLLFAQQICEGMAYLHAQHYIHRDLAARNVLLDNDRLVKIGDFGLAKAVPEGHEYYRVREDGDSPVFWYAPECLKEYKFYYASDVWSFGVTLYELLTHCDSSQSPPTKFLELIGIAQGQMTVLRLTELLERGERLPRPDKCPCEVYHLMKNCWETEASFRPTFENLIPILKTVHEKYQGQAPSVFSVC
T4 sequence (P23458 whole entry): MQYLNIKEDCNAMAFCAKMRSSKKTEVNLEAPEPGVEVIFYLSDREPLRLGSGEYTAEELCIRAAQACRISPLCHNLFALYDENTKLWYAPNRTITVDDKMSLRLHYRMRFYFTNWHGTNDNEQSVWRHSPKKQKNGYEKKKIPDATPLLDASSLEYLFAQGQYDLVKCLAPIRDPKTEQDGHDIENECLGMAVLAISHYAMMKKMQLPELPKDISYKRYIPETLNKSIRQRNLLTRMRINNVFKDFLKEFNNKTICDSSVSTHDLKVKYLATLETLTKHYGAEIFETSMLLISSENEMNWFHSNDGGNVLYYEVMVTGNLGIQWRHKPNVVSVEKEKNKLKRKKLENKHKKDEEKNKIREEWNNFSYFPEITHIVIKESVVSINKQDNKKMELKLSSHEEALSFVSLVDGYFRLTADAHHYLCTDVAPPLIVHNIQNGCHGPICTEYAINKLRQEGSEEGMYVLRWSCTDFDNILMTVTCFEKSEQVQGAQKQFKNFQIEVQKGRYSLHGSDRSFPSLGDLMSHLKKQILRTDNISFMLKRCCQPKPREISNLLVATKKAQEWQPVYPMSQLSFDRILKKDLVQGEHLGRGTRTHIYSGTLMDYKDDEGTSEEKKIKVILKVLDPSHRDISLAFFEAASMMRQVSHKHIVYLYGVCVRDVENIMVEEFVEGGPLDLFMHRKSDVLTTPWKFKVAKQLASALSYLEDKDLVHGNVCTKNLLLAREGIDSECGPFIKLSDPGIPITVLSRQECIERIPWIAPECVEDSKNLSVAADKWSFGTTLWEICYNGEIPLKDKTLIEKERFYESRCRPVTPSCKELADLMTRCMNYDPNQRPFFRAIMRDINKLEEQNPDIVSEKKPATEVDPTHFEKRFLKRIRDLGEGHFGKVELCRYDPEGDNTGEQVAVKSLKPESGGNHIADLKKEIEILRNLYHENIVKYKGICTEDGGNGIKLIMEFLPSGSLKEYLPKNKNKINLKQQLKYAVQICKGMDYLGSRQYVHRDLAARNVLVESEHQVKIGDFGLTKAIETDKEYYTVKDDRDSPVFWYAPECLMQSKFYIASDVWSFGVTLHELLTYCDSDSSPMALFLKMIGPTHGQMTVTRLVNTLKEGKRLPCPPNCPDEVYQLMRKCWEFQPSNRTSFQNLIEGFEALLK

| SMILES | IC50 [1] [nM] | IC50 [2] [nM] | IC50 [3] [nM] | Selectivity ratio over JAK2, Tyk2 [3] | IC50 [4] [nM] | Selectivity ratio over JAK2, JAK3 [1] | Selectivity ratio over JAK2, JAK1 [4] |
| --- | --- | --- | --- | --- | --- | --- | --- |
| CC(C)NC(=O)Cn1cc(Nc2nccc(NC[C@H]3CCCN3C(=O)CC#N)n2)cn1 [Example 96, (R)-2-(4-((4-(((1-(2-cyanoacetyl)pyrrolidin-2-yl)methyl)amino)pyrimidin-2-yl)amino)-1H-pyrazol-1-yl)-N-isopropylacetamide] | 1000 to 10000 | > 10000 | < 100 | Tyk2 = 555 | 100 to 1000 |  |  |
| C=CS(=O)(=O)N1CC[C@@H](CNc2nc(Nc3cnn(C)c3)ncc2Cl)C1 [Example 31, (S)-5-chloro-N^2-(1-methyl-1H-pyrazol-4-yl)-N^4-((1-(vinylsulfonyl)pyrrolidin-3-yl)methyl)pyrimidine-2,4-diamine] | < 100 | 1000 to 10000 | 100 to 1000 |  | 100 to 1000 | JAK3 = 190 |  |
| Cc1cnc(Nc2cnn(CC(F)F)c2)nc1NC[C@H]1CCCN1CCS(C)(=O)=O [Example 116, (R)—N^2-(1-(2,2-difluoroethyl)-1H-pyrazol-4-yl)-5-methyl-N^4-((1-(2-(methylsulfonyl)ethyl)pyrrolidin-2-yl)methyl)pyrimidine-2,4-diamine] | < 100 | 1000 to 10000 | < 100 |  | < 100 |  | JAK1 = 70 |
| Cn1cc(Nc2ncc(Cl)c(NC[C@H]3CCN(CCS(C)(=O)=O)C3)n2)cn1 [Example 55, (R)-5-chloro-N^2-(1-methyl-1H-pyrazol-4-yl)-N^4-((1-(2-(methylsulfonyl)ethyl)pyrrolidin-3-yl)methyl)pyrimidine-2,4-diamine] | < 100 | 100 to 1000 | 100 to 1000 |  | < 100 |  | JAK1 = 11 |
| C=CS(=O)(=O)N1CCC[C@@H]1CNc1nc(Nc2cnn(C)c2)ncc1Cl [Example 7, (R)-5-chloro-N^2-(1-methyl-1H-pyrazol-4-yl)-N^4-((1-(vinylsulfonyl)pyrrolidin-2-yl)methyl)pyrimidine-2,4-diamine] | < 100 | 1000 to 10000 | 100 to 1000 |  | 100 to 1000 | JAK3 = 100 |  |
| CCN1CCC[C@H]1CNc1nc(Nc2cnn(C)c2)ncc1Cl [Example 61, (S)-5-chloro-N4-((1-ethylpyrrolidin-2-yl)methyl)-N2-(1-methyl-1H-pyrazol-4-yl)pyrimidine-2,4-diamine] | 100 to 1000 | > 10000 | > 10000 |  | 100 to 1000 |  | JAK1 = 49 |
| CCN1CCC[C@@H]1CNc1nc(Nc2cnn(C)c2)ncc1Cl [Example 60, (R)-5-chloro-N^4-((1-ethylpyrrolidin-2-yl)methyl)-N^2-(1-methyl-1H-pyrazol-4-yl)pyrimidine-2,4-diamine] | 100 to 1000 | > 10000 | 100 to 1000 |  | 100 to 1000 |  | JAK1 = 45 |
| C=CS(=O)(=O)N1CC[C@H](CNc2nc(Nc3cnn(C)c3)ncc2Cl)C1 [Example 25, (R)-5-chloro-N^2-(1-methyl-1H-pyrazol-4-yl)-N^4-((1-(vinylsulfonyl)pyrrolidin-3-yl)methyl)pyrimidine-2,4-diamine] | < 100 | > 10000 | 100 to 1000 |  | 100 to 1000 | JAK3 = 556 |  |
| Cc1cnc(Nc2cnn(CC(F)F)c2)nc1NC[C@H]1CCN(C(=O)CC#N)C1 [Example 129, (R)-3-(3-(((2-((1-(2,2-difluoroethyl)-1H-pyrazol-4-yl)amino)-5-methylpyrimidin-4-yl)amino)methyl)pyrrolidin-1-yl)-3-oxopropanenitrile] | 100 to 1000 | 1000 to 10000 | < 100 |  | < 100 |  | JAK1 = 139 |
| Cn1cc(Nc2ncc(Cl)c(NC[C@H]3CCCN3CCC(F)(F)F)n2)cn1 [Example 80, (R)-5-chloro-N^2-(1-methyl-1H-pyrazol-4-yl)-N^4-((1-(3,3,3-trifluoropropyl)pyrrolidin-2-yl)methyl)pyrimidine-2,4-diamine] | 100 to 1000 | < 100 | < 100 | Tyk2 = 33 | < 100 |  |  |
| CNC(=O)Cn1cc(Nc2ncc(Cl)c(NC[C@H]3CCCN3S(C)(=O)=O)n2)cn1 [Example 67, (R)-2-(4-(5-chloro-4-((1-(methylsulfonyl)pyrrolidin-2-yl)methylamino)pyrimidin-2-ylamino)-1H-pyrazol-1-yl)-N-methylacetamide] | < 100 | < 100 | < 100 | Tyk2 = 13 | < 100 |  |  |
| CC(=O)N1CCC[C@H]1CNc1nc(Nc2cnn(CCO)c2)ncc1Cl [Example 9, (S)-1-(2-(((5-chloro-2-((1-(2-hydroxyethyl)-1H-pyrazol-4-yl)amino)pyrimidin-4-yl)amino)methyl)pyrrolidin-1-yl)ethanone] | 100 to 1000 | 1000 to 10000 | 100 to 1000 |  | 100 to 1000 |  | JAK1 = 25 |
| Cn1cc(Nc2ncc(Cl)c(NC[C@H]3CCCN3C(=O)CO)n2)cn1 [Example 54, (R)-1-(2-((5-chloro-2-(1-methyl-1H-pyrazol-4-ylamino)pyrimidin-4-ylamino)methyl)pyrrolidin-1-yl)-2-hydroxyethanone] | 100 to 1000 | 100 to 1000 | < 100 | Tyk2 = 12 | < 100 |  |  |
| Cn1cc(Nc2ncc(Cl)c(NC[C@@H]3CCCN3S(C)(=O)=O)n2)cn1 [Example 12, (S)-5-chloro-N^2-(1-methyl-1H-pyrazol-4-yl)-N^4-((1-(methylsulfonyl)pyrrolidin-2-yl)methyl)pyrimidine-2,4-diamine] | < 100 | 100 to 1000 | < 100 |  | < 100 |  | JAK1 = 12 |
| Cn1cc(Nc2ncc(Cl)c(NC[C@H]3CCCN3CC(=O)NCC#N)n2)cn1 [Example 99, (R)-2-(2-(((5-chloro-2-((1-methyl-1H-pyrazol-4-yl)amino)pyrimidin-4-yl)amino)methyl)pyrrolidin-1-yl)-N-(cyanomethyl)acetamide] | < 100 | 1000 to 10000 | 100 to 1000 |  | < 100 | JAK3 = 155 |  |
| Cn1cc(Nc2ncc(F)c(NC[C@H]3CCCN3C(=O)CCC#N)n2)cn1 [Example 114, (R)-4-(2-(((5-fluoro-2-((1-methyl-1H-pyrazol-4-yl)amino)pyrimidin-4-yl)amino)methyl)pyrrolidin-1-yl)-4-oxobutanenitrile] | 100 to 1000 | 1000 to 10000 | < 100 | Tyk2 = 103 | < 100 |  |  |
| CN(C)C(=O)Cn1cc(Nc2ncc(Cl)c(NC[C@@H]3CCCN3)n2)cn1 [Example 66, (S)-2-(4-(5-chloro-4-(pyrrolidin-2-ylmethylamino)pyrimidin-2-ylamino)-1H-pyrazol-1-yl)-N,N-dimethylacetamide] | 1000 to 10000 | > 10000 | 100 to 1000 |  | 1000 to 10000 |  |  |
| Cn1cc(Nc2ncc(Cl)c(NC[C@@H]3C[C@H](F)CN3CCC#N)n2)cn1 [Example 90, 3-((2S,4S)-2-(((5-chloro-2-((1-methyl-1H-pyrazol-4-yl)amino)pyrimidin-4-yl)amino)methyl)-4-fluoropyrrolidin-1-yl)propanenitrile] | < 100 | 100 to 1000 | < 100 |  | < 100 |  | JAK1 = 23 |

Reference: US20150005281A1, “PYRIMIDINE-2,4-DIAMINE DERIVATIVES AS KINASE INHIBITORS” (Cellzome Limited, priority 2011, published 2015)
